Where a name gives a salt, the structure may show the parent alone.
Key:
recipient splenocytes = assay: Mixed lymphocyte culture with splenocytes of treated cardiac allograft recipients; type: in vivo, mice
Experimental: Mixed lymphocyte culture (MLC). Irradiated (25Gy, ^137Cs) DBA/2 splenocytes (5×10^5/well) were co-cultured with responders (5×10^5/well) in a 96 well round bottom plates for 3 days at 37° C., 95% air with 5% CO2. When using cells from cardiac recipients as responders, the co-culture period was 3 days without any further in vitro treatment. ^3H-thymidine (1 μCi/well) was added 16 hours before termination of cell culture, and ^3H-thymidine incorporation was measured.
Induction of HO-1 expression or biliverdin administration suppresses the T cell mediated alloimmune response in vivo. […] Recipient splenocytes harvested 5 days after cardiac transplantation were used as responder cells in an in vitro culture with DBA/2 splenocytes as feeder cells. Proliferation was measured at 72 hours (FIG. 9).

[1] = tested on: DBA/2 cardiac allografts in B6AF1 recipients; assay: Heterotopic cardiac allograft transplantation, graft survival; type: in vivo, mice
Experimental: Animals. Male DBA/2 (H-2^d), B6AF1 (H-2^k/d,b) and FVB (H-2^q) mice were purchased from Jackson Lab. Inc. (Bar Harbor, Me.). They were maintained in the institutional specific-pathogen free facility, which has an appropriate light cycle with free access to water and chow ad libitum, and used for experiments at age of 6-10 weeks.
Cardiac transplantation. DBA2/J and B6AF1 mice were used as donor and recipient, respectively. Heterotopic heart transplantation was carried out according to the procedure of Corry and Russell (Corry et al., Transplant Proc. 5(1):733-5, 1973). […] Secondary heart grafting into the neck was performed using a cuff technique as described previously (Matsuura et al., Transplantation 51(4):896-8, 1991). Briefly, the heart graft was harvested from either DBA2/J (donor strain) or FVB (third-party strain) mice. The right jugular vein and the right common carotid artery of recipient were dissected, and a cuff (polyethylene or polyimide) was connected to these vessels. The graft aorta and pulmonary artery were sleeved over the cuff on the recipient's common carotid artery and the jugular vein, respectively, and fixed with a ligature. After transplantation, beating of the graft was monitored by daily palpation, and scored +1 to +4 according to the strength of graft contractions. Graft rejection was defined as cessation of beating, and was confirmed by direct inspection followed by histological examination.
Donor and recipient mice were treated either with CoPPIX (5 mg/kg/day), ZnPPIX (5 mg/kg/day) or biliverdin (administered once, twice or three times per day at a dose of 50 μmol/kg/dose). All reagents were administered by intraperitoneal (i.p.) injection. Donor animals were treated for 2 days, starting from 2 days before graft harvest (day-2 and day-1). Treatment of recipient mice was initiated one day before transplantation, and continued until 13 days post-transplant (day-1 to day 13). For the experiments using donor splenocyte infusion (DSI) on day-7 (DSI (D-7)), treatments of recipient animals (either with CoPPIX or ZnPPIX) started from day-8 and were terminated on day 6. Recipients received no further treatment. Spleen cells (2×10^7) isolated from DBA/2J mice as described herein were used for DSI treatment. The cells were injected via the penile vein with 200 μl of 0.9% saline solution.
Statistics. Cardiac graft survival was plotted by the Kaplan-Meier method, and a log-rank test was applied to compare statistical significance. Expression levels of HO-1/α-actin protein are expressed as mean±standard deviation. Other data are expressed as mean±standard error of the mean (mean±SEM). Intergroup statistical analysis was performed by one-way ANOVA, and Fisher's PSLD was used for a post-hoc test. A comparison was considered statistically significant when the p-value was <0.05.

intestinal graft = assay: Intestinal microvascular blood flow (laser Doppler); type: in vivo, LEW rats; conditions: BV
Experimental: Measurement of Intestinal Blood Flow. Intestinal microvascular blood flow was monitored by placing the flat probe of a laser Doppler flowmeter (BLF 21D, Transonic Systems, Ithaca, N.Y.) on the serosal surface of the graft jejunum and ileum adjacent to the mesenteric border. Blood flows in SMA and marginal artery (MA) were also analyzed.
Measurement of Intestinal Blood Flow. Microvascular blood flow for in grafts preserved for 6 hours was measured using a laser Doppler flowmeter (BLF 21D, Transonic Systems, Ithaca, N.Y.) equipped with a flat probe. Intestinal microvascular blood flow was monitored by placing the probe on the serosal surface of the graft jejunum and ileum adjacent to the mesenteric border.

SITx recipients = assay: Animal survival after SITx with 6 hours cold preservation; type: in vivo, LEW rats; conditions: 14 days follow-up; 8/8; saline control 57.1%
Experimental: Small Intestinal Transplantation. Orthotopic small intestinal transplantation (SITx) was performed in syngeneic Lewis rats. SITx with caval drainage was performed using a previously described procedure (Murase et al., in Handbook of Animal Models in Transplantation Research, Cramer et al., Eds. CRC Press, Boca Raton, Fla., pp. 203-213 (1994)). […] The graft was perfused via the aortic segment with 5 ml chilled Ringer's lactate solution, and the intestinal lumen was irrigated with 20 ml of cold saline solution containing 0.5% neomycin-sulfate (Sigma, St. Louis, Mo.). End-to-side anastomoses between the graft aorta and the recipient infrarenal aorta, and between the graft portal vein and recipient vena cava, were performed with 10-0 Novafil™ suture. […] The entire recipient intestine was removed and the enteric continuity was restored by proximal and distal end-to-end intestinal anastomoses. Recipient animals were given 20 mg/day prophylactic cefamandole nafate for 3 postoperative days. Transplanted recipients were given water 3 hours after surgery, and were fed 24 hours after surgery.
Animal survival. Six hours of cold preservation in UW of the intestinal graft induced intestinal dysfunction in untreated recipients; 3 out of 14 control animals died within 24 hours and an additional 3 animals died 5 and 7 days after SITx due to bowel obstruction secondarily to intestinal I/R injury. […]

[2] = long-term acceptors after biliverdin, second set transplantation, n=3

C=CC1=C(C)c2cc3[n-]c(cc4nc(cc5[n-]c(cc1n2)c(C)c5CCC(=O)[O-])C(CCC(=O)[O-])=C4C)c(C)c3C=C.[Co+2].[H+].[H+] [CoPP, Cobalt protoporphyrin]
proliferation of recipient splenocytes (recipient splenocytes; harvested 5 days after cardiac transplantation, 72 hours culture with DBA/2 splenocytes, compared to controls): inhibited splenocyte proliferation in a significant manner
grafts surviving long-term, >100 days ([1]; 5 mg/kg/day i.p., donor from day-2, recipient day-1 to day 13, 2 of 6): 33.3%
MST of the other 4 rejected grafts ([1]; CoPPIX 5 mg/kg/day i.p.): 18 days
allografts surviving over 100 days ([1]; CoPPIX (donor 2 days, recipient day-8 to day 6) plus DSI (D-7), 7/7): 100%
grafts surviving long-term for more than 100 days ([1]; CoPPIX together with DSI (D0), 7 of 8): 87.5%

C=CC1=C(C)/C(=C/C2=NC(=C\c3[nH]c(/C=C4\NC(=O)C(C)=C4C=C)c(C)c3CCC(=O)O)/C(CCC(=O)O)=C2C)NC1=O [biliverdin, biliverdin dihydrochloride]
microvascular blood flow following transplantation (intestinal graft): had no effect
proliferation of recipient splenocytes (recipient splenocytes; biliverdin 50 μmol/kg, one dose per day): significantly suppressed
proliferation of recipient splenocytes (recipient splenocytes; biliverdin 50 μmol/kg, three doses per day): significantly suppressed
grafts surviving for more than 100 days ([1]; biliverdin two (every 12 hours) or three (every 8 hours) times per day, 50 μmol/kg per dose, 4 of 6): 66.7%
acceptance of secondary heart graft from the donor strain [1, 2]: more than 60 days
rejection of third party (FVB) graft [1, 2]: ≤ 11 days
graft median survival time (MST) ([1]; one dose per day i.p. (ZnPPIX 5 mg/kg; biliverdin 50 μmol/kg), untreated 11.5 days): 20.5 days
overall animal survival (SITx recipients): 100%

From patent publication US8097585B2, “Methods of treating inflammation by administration of heme oxygenase-1 and products of heme degradation” (priority 2002, dated 2012)
